Assay results from patent publication US6358514B1, “Combination of a retinoid with a histidine derivative” (L'Oreal, priority 1998, dated 2002).

Assay type: physicochemical
Protocol: The stability of a retinoid is defined in accordance with the present invention by the percentage of the retinoid which remains in its original form after the composition comprising it has been stored for a given period and at a given temperature.
Test of stability of 0.3% all-trans retinol in a water/ethanol mixture stored at 45° C.
The conditions of the study are as follows: test compound at 0.1% (as weight/volume) in water/ethanol (40/60%) all-trans retinol sold by the company Fluka at 0.3% (as weight/volume) in water/ethanol (40/60%) aerobic medium with 55% by volume of air and 45% by volume of ethanol/water storage at 45° C. in amber-coloured bottles.
Degradation of the retinol under these conditions reaches 100% in 7 days of storage at 45° C. The storage conditions to which we subjected the compositions are particularly harsh.
The residual retinol content is monitored by HPLC (on a Spherisorb ODS1 C18 column, by elution with an H2O/CH3CO2H/CH3CO2NH4/acetonitrile mixture: 15/1/0.4/83.6) at 7 days (RT1) and 15 days (RT2) of storage at 45° C. in aerobic medium (55% by volume of air).

stabilization of retinol compared with the histidine derivatives	Degradation of the retinol (7 days, 0.3 % (weight/volume))	SMILES
stabilizes retinol much less	–	NCCC(=O)N[C@@H](Cc1cnc[nH]1)C(=O)O [carnosine]
–	100%	CC1=C(/C=C/C(C)=C/C=C/C(C)=C/CO)C(C)(C)CCC1 [retinol, all-trans retinol]
